Source: the NIST ThermoML archive (doi:10.1021/je200178b)

Assay: mean ionic activity coefficient (dimensionless); mn = molality of the nth substance listed, in mol/kg
Settings: 298.15 K, 101 kPa, Liquid, ion-selective electrode

[Cs+].[F-] [cesium fluoride (CsF)] + O
Settings	mean ionic activity coefficient
m1 = 0.0043	0.9338
m1 = 0.0085	0.9112
m1 = 0.0128	0.8953
m1 = 0.0172	0.8824
m1 = 0.0215	0.872
m1 = 0.0258	0.863
m1 = 0.0302	0.8551
m1 = 0.0346	0.848
m1 = 0.0391	0.8416
m1 = 0.0437	0.8355
m1 = 0.0523	0.8257
m1 = 0.0608	0.8173
m1 = 0.0698	0.8096
m1 = 0.0787	0.8028
m1 = 0.0875	0.7968
m1 = 0.1003	0.7892
m1 = 0.1138	0.7822
m1 = 0.1268	0.7762
m1 = 0.1455	0.7689
m1 = 0.1632	0.7629
m1 = 0.1817	0.7575
m1 = 0.2045	0.7517
m1 = 0.226	0.7471
m1 = 0.2524	0.7423
m1 = 0.2823	0.7377
m1 = 0.3166	0.7335
m1 = 0.3589	0.7294
m1 = 0.4086	0.7259
m1 = 0.4762	0.7227

[F-].[Rb+] [rubidium fluoride (RbF)] + O
Settings	mean ionic activity coefficient
m1 = 0.0046	0.9305
m1 = 0.0096	0.9047
m1 = 0.014	0.8889
m1 = 0.0187	0.8759
m1 = 0.0232	0.8654
m1 = 0.0275	0.8567
m1 = 0.0321	0.8486
m1 = 0.0367	0.8414
m1 = 0.0411	0.8351
m1 = 0.0506	0.8235
m1 = 0.0596	0.8141
m1 = 0.0685	0.806
m1 = 0.0772	0.799
m1 = 0.0915	0.7891
m1 = 0.1058	0.7806
m1 = 0.1293	0.769
m1 = 0.1517	0.7599
m1 = 0.1747	0.7521
m1 = 0.2107	0.7421
m1 = 0.2467	0.7342
m1 = 0.2819	0.7278
m1 = 0.3349	0.7202
m1 = 0.3859	0.7146
m1 = 0.4584	0.7086
m1 = 0.5332	0.7043
m1 = 0.6214	0.701
